Paper PMC5871770, “Tlr1612 is the major repressor of cell aggregation in the light-color-dependent c-di-GMP signaling network of Thermosynechococcus vulcanus” (Scientific Reports, 2018)

Columns and labels:
[1] = target: T1, Tll0007-PilZ (FRET biosensor mCyPet-Tll0007 PilZ-mYPet) (Thermostichus vulcanus, UniProt E5RST0, R605A); experiment: FRET biosensor titration (F527/F475); type: binding; settings: 31 °C, pH 7.5, 100 mM NaCl, 10% glycerol, 50 nM protein; c-di-GMP 10 nM to 1 mM; PilZ RXXXR motif mutant
T1 construct: gene Tvtll0007; N-terminal His tag, pET28V, E. coli expressed
T1 sequence (E5RST0 entry or part of it R605A): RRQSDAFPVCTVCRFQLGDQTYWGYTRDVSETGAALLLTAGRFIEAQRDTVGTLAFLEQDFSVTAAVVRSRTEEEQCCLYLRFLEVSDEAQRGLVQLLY

[2] = target: T2, Tll0007-PilZ (FRET biosensor mCyPet-Tll0007 PilZ-mYPet) (Thermostichus vulcanus, UniProt E5RST0); experiment: FRET biosensor titration (F527/F475); type: binding; settings: 31 °C, pH 7.5, 100 mM NaCl, 10% glycerol, 50 nM protein; PilZ domain
T2 construct: gene Tvtll0007; N-terminal His tag, pET28V, E. coli expressed
T2 sequence (E5RST0 entry or part of it): as the sequence (E5RST0 entry or part of it R605A) above, with A6R counted along it

SesA = target: T3, SesA; experiment: EnzChek pyrophosphate assay, initial rate of diguanylate cyclase; type: biochemical; settings: 31 °C, pH 7.5, 20 mM MgCl2, 100 µM GTP, 0.2 µM protein, blue-light pre-irradiated; allosteric product inhibition at I-site (RXXD)
T3 construct: PCC 6803 from pTCH2031V; pre-irradiated with blue light

[3] = target: T4, full-length YcgR of Escherichia coli (Escherichia coli, UniProt P76010); experiment: FRET biosensor titration (F527/F475); type: binding; settings: read-out: affinity
T4 construct: full length between mCyPet and mYPet (FRET reporters); N-terminal His tag, pET28V, E. coli expressed
T4 sequence (P76010 1-244): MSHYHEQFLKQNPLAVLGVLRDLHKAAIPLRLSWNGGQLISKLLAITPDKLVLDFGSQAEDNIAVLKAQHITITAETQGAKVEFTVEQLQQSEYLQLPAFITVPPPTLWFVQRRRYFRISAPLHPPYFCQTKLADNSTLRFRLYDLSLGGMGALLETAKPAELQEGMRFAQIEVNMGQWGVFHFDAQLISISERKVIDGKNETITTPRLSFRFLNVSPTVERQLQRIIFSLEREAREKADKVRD

Kd [2]: 63900 ± 5100 nM | IC50 (SesA): 1070 ± 130 nM | Kd [3]: 420 ± 80 nM
SMILES: Nc1nc2c(ncn2[C@@H]2O[C@@H]3CO[P@](=O)(O)O[C@H]4[C@@H](O)[C@H](n5cnc6c(=O)[nH]c(N)nc65)O[C@@H]4CO[P@](=O)(O)O[C@H]3[C@H]2O)c(=O)[nH]1 [c-di-GMP, bis-(3′-5′)-cyclic diguanylic acid]
no FRET increase (no binding detected) [1]: R605A lacked the corresponding increase in FRET efficiency upon c-di-GMP addition
